The values that follow are results of earlier work, collected in patent US20070197530A1, “Amido compounds and their use as pharmaceuticals” (priority 2006, published 2007).

Series [1] has as its system bone nodule formation.
Series [2] concerns pancreatic islet cells of ob/ob mice.
The subject of series [3] is healthy volunteers. Particulars: after seven days of carbenoxolone treatment.
Series [4] relates to primary hippocampal cells.

`CC1(C)[C@@H](OC(=O)CCC(=O)O)CC[C@]2(C)[C@H]3C(=O)C=C4[C@@H]5C[C@@](C)(C(=O)O)CC[C@]5(C)CC[C@@]4(C)[C@]3(C)CC[C@@H]12` [carbenoxolone]: the “negative effects of glucocorticoids on bone nodule formation” value in series [1] is on record as “attenuate the negative effects of glucocorticoids on bone nodule formation”. The glucose-stimulated insulin release entry in series [2] was “improves glucose-stimulated insulin release”. Further, the “IOP reduced by” value in series [3] is on record as 18%. Also, the “protection from glucocorticoid-mediated exacerbation of excitatory amino acid neurotoxicity” value in series [4] was “protects the cells from glucocorticoid-mediated exacerbation of excitatory amino acid neurotoxicity”.
